The text below walks through data of paper PMC12203311, “Design, synthesis, in silico and in vitro evaluation of pyrrole–indole hybrids as dual tubulin and aromatase inhibitors with potent anticancer activities” (RSC Advances, 2025).

One test has as its system RPMI-8226. Nature of the test: NCI60 five-dose screen. Type of test: cell-based. Particulars: Homo sapiens, RPMI-8226, leukemia; for CC50: read-out: LC50 (the source's name).
The test system of a further test is SR. Nature of the test: NCI60 five-dose screen. Format: cell-based. The conditions noted are these: Homo sapiens, leukemia; for CC50: read-out: LC50 (the source's name).
In the next test the test system is HOP-62. Description: NCI60 five-dose screen. Format: cell-based. Particulars: Homo sapiens, HOP-62, NSC lung cancer; for CC50: read-out: LC50 (the source's name).
For a further test, the system named is M14. Description: NCI60 five-dose screen. Format: cell-based. Particulars: Homo sapiens, M14, melanoma; for CC50: read-out: LC50 (the source's name).
A further test deals with A498. Description: NCI60 five-dose screen. Type of test: cell-based. Particulars: Homo sapiens, A498, renal cancer; for CC50: read-out: LC50 (the source's name).
A further test deals with ACHN. Description: NCI60 five-dose screen. Type of test: cell-based. Particulars: Homo sapiens, renal cancer; for CC50: read-out: LC50 (the source's name).
Another test has as its system MDA-MB-231/ATCC. Nature of the test: NCI60 five-dose screen. Type of test: cell-based. The conditions noted are these: Homo sapiens, breast cancer; for CC50: read-out: LC50 (the source's name).
The target of the next test is T1, porcine brain tubulin (Sus scrofa, UniProt P02550+P02554).
T1 construct: a solution containing porcine brain tubulin (2 mg mL^−1); purchased Cytoskeleton BK011P; host or cells: porcine brain (tissue-purified)
T1 sequence (P02554 whole entry): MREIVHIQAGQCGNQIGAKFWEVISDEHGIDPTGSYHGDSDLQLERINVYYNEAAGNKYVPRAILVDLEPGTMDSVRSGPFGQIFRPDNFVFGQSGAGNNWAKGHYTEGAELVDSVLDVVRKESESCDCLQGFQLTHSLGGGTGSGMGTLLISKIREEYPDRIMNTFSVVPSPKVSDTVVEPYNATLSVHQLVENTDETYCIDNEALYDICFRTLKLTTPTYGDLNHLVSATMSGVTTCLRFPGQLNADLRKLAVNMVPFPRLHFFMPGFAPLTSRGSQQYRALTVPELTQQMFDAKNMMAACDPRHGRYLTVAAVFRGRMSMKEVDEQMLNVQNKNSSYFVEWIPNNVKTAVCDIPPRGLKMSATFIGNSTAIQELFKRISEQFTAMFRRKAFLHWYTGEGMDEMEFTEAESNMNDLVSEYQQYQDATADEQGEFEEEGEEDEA
T1 sequence (P02550 whole entry): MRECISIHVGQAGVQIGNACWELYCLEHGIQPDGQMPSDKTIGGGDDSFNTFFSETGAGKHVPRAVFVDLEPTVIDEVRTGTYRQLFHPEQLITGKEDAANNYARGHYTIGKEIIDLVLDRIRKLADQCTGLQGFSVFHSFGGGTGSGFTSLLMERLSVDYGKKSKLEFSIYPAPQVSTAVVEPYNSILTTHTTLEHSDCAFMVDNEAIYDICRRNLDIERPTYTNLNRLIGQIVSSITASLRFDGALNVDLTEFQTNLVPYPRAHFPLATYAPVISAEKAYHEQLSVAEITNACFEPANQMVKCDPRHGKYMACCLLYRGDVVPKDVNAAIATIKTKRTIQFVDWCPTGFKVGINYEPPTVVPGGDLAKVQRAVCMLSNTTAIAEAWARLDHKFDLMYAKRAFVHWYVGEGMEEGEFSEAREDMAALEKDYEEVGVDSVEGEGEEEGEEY
Nature of the test: Tubulin polymerisation assay (fluorescence-based). Type of test: biochemical. Particulars: 10 µM, 37 °C. On the procedure: The tubulin polymerisation experimental protocol followed the method described in this literature.[28] The experimental was using fluorescence-based assay kit (Cytoskeleton, catalog no. BK011P). In Brief, 5 µL of test compounds was added to a 96-well plate, then mix with 50 µL of a solution containing porcine brain tubulin (2 mg mL^−1) in buffer with 20% glycerol and 1 mM GTP. A microplate reader (Varioskan™ LUX multimode microplate reader, Thermo Scientific™) was used to measure fluorescence intensity every 60 seconds for 60 minutes, with excitation at 360 nm and emission at 450 nm, maintained at 37 °C throughout the experiment.

Structures are written as SMILES.

What is called GI50 is the concentration giving 50% growth inhibition. A lower GI50 goes with more potent growth inhibition. On to `O=C(N/N=C/c1ccc[nH]1)c1[nH]c2ccc(Br)cc2c1-c1ccccc1` [Derivative 3a, (E)-N′-((1H-Pyrrol-2-yl)methylene)-5-bromo-3-phenyl-1H-indole-2-carbohydrazide], for which the GI50 stood at 337 nM with RPMI-8226; 160 nM in the test with SR; 684 nM with HOP-62; 304 nM in the test with M14; 2.57 µM with A498; 355 nM in the test on ACHN. Further, the GI50 with MDA-MB-231/ATCC amounted to 396 nM. Also, the CC50 in the test with RPMI-8226 is above 100 µM; in the test with SR, above 100 µM; with HOP-62, 32.6 µM; in the test on M14, 41.4 µM; with A498, 41.6 µM; in the test with ACHN it was 21.2 µM. The CC50 in the test on MDA-MB-231/ATCC was determined as 21 µM. Moreover, the “RFU in tubulin polymerization assay” value on porcine brain tubulin is around 55 arbitrary units.

Regarding `O=C(N/N=C/c1cc[nH]c1)c1[nH]c2ccc(Br)cc2c1-c1ccccc1` [Derivative 3b, (E)-N′-((1H-Pyrrol-3-yl)methylene)-5-bromo-3-phenyl-1H-indole-2-carbohydrazide], the 50% growth inhibitory concentration (GI50) was determined as 1430 nM with RPMI-8226; 2010 nM in the test with HOP-62; 1580 nM in the test on M14; 12.7 µM in the test on A498; 1710 nM with ACHN; 1620 nM in the test with MDA-MB-231/ATCC. In addition, the CC50 in the test on RPMI-8226 is above 100 µM; in the test on HOP-62, 61.4 µM; in the test with M14 it was 45.8 µM; in the test with A498 it was 54.6 µM; with ACHN, 39 µM; in the test on MDA-MB-231/ATCC, 26.4 µM. Also, the “tubulin inhibition” value at porcine brain tubulin is recorded as “weak tubulin inhibitors”.

For the compound `Cn1cccc1/C=N/NC(=O)c1[nH]c2ccc(Br)cc2c1-c1ccccc1` [Derivative 3d, (E)-5-Bromo-N′-((1-methyl-1H-pyrrol-2-yl)methylene)-3-phenyl-1H-indole-2-carbohydrazide], the GI50 with RPMI-8226 is 610 nM; in the test on HOP-62, 570 nM; with M14 it was 324 nM; in the test with A498 it was above 100 µM; in the test with ACHN, 175 nM; in the test on MDA-MB-231/ATCC, 237 nM. For the same compound, the CC50 with RPMI-8226, in the test with HOP-62, in the test on M14, in the test with A498, in the test on ACHN and with MDA-MB-231/ATCC was above 100 µM in each case. For the same compound, the “tubulin inhibition” value at porcine brain tubulin is recorded as “weak tubulin inhibitors”.

Regarding `O=C(N/N=C/c1cc(Br)c[nH]1)c1[nH]c2ccc(Br)cc2c1-c1ccccc1` [Derivative 3e, (E)-5-Bromo-N′-((4-bromo-1H-pyrrol-2-yl)methylene)-3-phenyl-1H-indole-2-carbohydrazide], the concentration for 50% growth inhibition (GI50) in the test on RPMI-8226 stood at 346 nM; in the test on HOP-62, 546 nM; with M14, 270 nM; in the test on A498, 5.47 µM; with ACHN, 418 nM; with MDA-MB-231/ATCC, 215 nM. The CC50 with RPMI-8226 is above 100 µM; with HOP-62, above 100 µM; with M14 it was 20.2 µM; in the test with A498, 44.5 µM; in the test on ACHN it was 23.5 µM; in the test on MDA-MB-231/ATCC, 14.3 µM. In addition, on porcine brain tubulin, the “RFU in tubulin polymerization assay” value was around 50 arbitrary units.

Consider `O=C(N/N=C/c1[nH]ccc1Cl)c1[nH]c2ccc(Br)cc2c1-c1ccccc1` [Derivative 3g, (E)-5-Bromo-N′-((3-chloro-1H-pyrrol-2-yl)methylene)-3-phenyl-1H-indole-2-carbohydrazide], for which the GI50 was determined as 855 nM with RPMI-8226; 3800 nM in the test with HOP-62; 689 nM in the test on M14; 10.6 µM in the test with A498; 627 nM in the test with ACHN; 2070 nM with MDA-MB-231/ATCC. Besides, the CC50 with RPMI-8226 is above 100 µM; in the test on HOP-62, 60.8 µM; in the test with M14, 45.4 µM; in the test with A498, 49.3 µM; in the test on ACHN, 34.5 µM; in the test on MDA-MB-231/ATCC, 28.2 µM. On porcine brain tubulin, the “tubulin inhibition” value was “weak tubulin inhibitors”.

For `CCOC(=O)c1ccc(/C=N/NC(=O)c2[nH]c3ccc(Br)cc3c2-c2ccccc2)[nH]1` [Derivative 3i, Ethyl (E)-5-((2-(5-bromo-3-phenyl-1H-indole-2-carbonyl)hydrazono)methyl)-1H-pyrrole-2-carboxylate], the GI50 with RPMI-8226 turned out to be 2280 nM; with HOP-62, 3650 nM; in the test with M14 it was 2730 nM; in the test on A498, 10.5 µM; in the test with ACHN, 1860 nM; in the test on MDA-MB-231/ATCC, 2630 nM. Moreover, the CC50 in the test with RPMI-8226 is above 100 µM; with HOP-62 it was above 100 µM; in the test on M14, 71.9 µM; with A498, 55.2 µM; in the test on ACHN it was 73.8 µM; with MDA-MB-231/ATCC, 33.2 µM.

For the compound `CCOC(=O)c1c[nH]c(/C=N/NC(=O)c2[nH]c3ccc(Br)cc3c2-c2ccccc2)c1` [Derivative 3j, Ethyl (E)-5-((2-(5-bromo-3-phenyl-1H-indole-2-carbonyl)hydrazono)methyl)-1H-pyrrole-3-carboxylate], the GI50 in the test with RPMI-8226 turned out to be 2520 nM; in the test with SR, 948 nM; with HOP-62, 2780 nM; in the test with M14 it was 2390 nM; in the test on A498, 3.53 µM; with ACHN, 3390 nM. Further, growth in the test on MDA-MB-231/ATCC was halved (GI50) at 2850 nM. In addition, the CC50 with RPMI-8226 is above 100 µM; in the test on SR, above 100 µM; with HOP-62 it was 54.4 µM; with M14, 50.3 µM; with A498, 43.4 µM; in the test on ACHN, 36.4 µM. For the same compound, the CC50 in the test with MDA-MB-231/ATCC stood at 36.8 µM.

For `O=C(N/N=C/c1ccc(C(=O)N2CCOCC2)[nH]1)c1[nH]c2ccc(Br)cc2c1-c1ccccc1` [Derivative 3n, (E)-5-Bromo-N′-((5-(morpholine-4-carbonyl)-1H-pyrrol-2-yl)methylene)-3-phenyl-1H-indole-2-carbohydrazide], the GI50 with RPMI-8226 is 4500 nM; in the test with SR, 405 nM; in the test on HOP-62, 3360 nM; in the test on M14, 1920 nM; in the test on A498, 3.53 µM; in the test on ACHN, 4560 nM. Also, growth in the test on MDA-MB-231/ATCC was halved (GI50) at 4810 nM. The CC50 in the test with RPMI-8226 is above 100 µM; with SR, 38.9 µM; in the test on HOP-62, 69.2 µM; with M14, 64.2 µM; in the test on A498, 59.9 µM; with ACHN, above 100 µM. Further, the CC50 with MDA-MB-231/ATCC stood at 83.2 µM.

For the compound `O=C(N/N=C/c1ccc([N+](=O)[O-])[nH]1)c1[nH]c2ccc(Br)cc2c1-c1ccccc1` [Derivative 3p, (E)-5-Bromo-N′-((5-nitro-1H-pyrrol-2-yl)methylene)-3-phenyl-1H-indole-2-carbohydrazide], the GI50 in the test with RPMI-8226 is 468 nM; in the test on SR, 354 nM; with HOP-62, 606 nM; in the test on M14 it was 652 nM; in the test on A498 it was 2.6 µM; with ACHN, 1260 nM. Besides, in the test with MDA-MB-231/ATCC, the GI50 stood at 2140 nM. In addition, the CC50 is above 100 µM in the test with RPMI-8226; above 100 µM with SR; 39.5 µM with HOP-62; 37 µM in the test with M14; 43.7 µM in the test with A498; 38 µM in the test with ACHN. Besides, the CC50 in the test with MDA-MB-231/ATCC is 46.6 µM. For the same compound, the “RFU in tubulin polymerization assay” value on porcine brain tubulin was around 50 arbitrary units.

Take `Cc1[nH]c(/C=N/NC(=O)c2[nH]c3ccc(Br)cc3c2-c2ccccc2)c(C)c1[N+](=O)[O-]` [Derivative 3r, (E)-5-Bromo-N′-((3,5-dimethyl-4-nitro-1H-pyrrol-2-yl)methylene)-3-phenyl-1H-indole-2-carbohydrazide]: the GI50 is 2700 nM in the test on RPMI-8226; 2040 nM with SR; 2090 nM in the test with HOP-62; 2540 nM with M14; 2.35 µM with A498; 3300 nM in the test on ACHN. In the test on MDA-MB-231/ATCC, this compound registered a 50% growth inhibitory concentration (GI50) of 3560 nM. The CC50 with RPMI-8226 was above 100 µM; in the test on SR it was above 100 µM; with HOP-62 it was 11.7 µM; with M14 it was 36.3 µM; in the test with A498, 27.6 µM; in the test on ACHN, 33.4 µM. The CC50 in the test on MDA-MB-231/ATCC amounted to 40.5 µM.

With `CCOC(=O)c1cc(/C=N/NC(=O)c2[nH]c3ccc(Br)cc3c2-c2ccccc2)c[nH]1` [Derivative 3v, Ethyl (E)-4-((2-(5-bromo-3-phenyl-1H-indole-2-carbonyl)hydrazono)methyl)-1H-pyrrole-2-carboxylate], the GI50 in the test with RPMI-8226 was 3840 nM; in the test with HOP-62, 6660 nM; in the test on M14 it was 3540 nM; in the test on A498, 12.9 µM; in the test on ACHN it was 4870 nM; with MDA-MB-231/ATCC it was 3270 nM. The CC50 was above 100 µM in the test with RPMI-8226; 69.2 µM in the test on HOP-62; 41.3 µM with M14; 52.1 µM in the test with A498; 49.9 µM in the test on ACHN; 33.8 µM in the test with MDA-MB-231/ATCC.
